Experimental findings from patent US7244758B2, “N-type calcium channel blockers” (Neuromed Pharmaceuticals Ltd., priority 2003, dated 2007) are described below.

One test deals with rat formalin model. Put plainly: Formalin-induced pain model (paw flinches). Type of test: in vivo. The following applies: 30 mg/kg IP, 10 min before formalin, saline control=100%. Here is the method: The effects of intrathecally delivered compounds of the invention on the rat formalin model were measured. The compounds were reconstituted to stock solutions of approximately 10 mg/ml in propylene glycol. Eight Holtzman male rats of 275-375 g size were randomly selected per test article.
The following study groups were used, with test article, vehicle control (propylene glycol) and saline delivered intraperitoneally (IP):
Prior to initiation of drug delivery baseline behavioral and testing data were taken.
On the morning of testing, a small metal band (0.5 g) was loosely placed around the right hind paw. The rat was placed in a cylindrical Plexiglas chamber for adaptation a minimum of 30 minutes. Test Article or Vehicle Control Article was administered 10 minutes prior to formalin injection (50 μl of 5% formalin) into the dorsal surface of the right hindpaw of the rat. The animal was then placed into the chamber of the automated formalin apparatus where movement of the formalin injected paw was monitored and the number of paw flinches tallied by minute over the next 60 minutes (Malmberg, A. B., et al., Anesthesiology (1993) 79:270-281).
Results are presented as Maximum Possible Effect±SEM, where saline control=100%.

Test [1] addresses T1, rat brain N-type calcium channel subunits (α1B+α2δ+β1b) (Rattus norvegicus, UniProt Q02294).
T1 construct: expressed in transfected cells; host or cells: HEK 293
Put plainly: N-type calcium channel block, whole cell patch clamp in HEK 293 cells. Conditions: holding −80 mV to +10 mV, 5 mM Ba. Type of test: cell-based. Here is the method: (§1) Antagonist activity was measured using whole cell patch recordings on human embryonic kidney cells either stably or transiently expressing rat α1B+α2δ+β1b channels (N-type channels) with 5 mM barium as a charge carrier. P/Q-type channels (α1A+α2δ+β1b cDNA subunits) and L-type channels (α1C+α2δ+β1b cDNA subunits) were also transiently expressed in HEK 293 cells.
For transient expression, host cells, such as human embryonic kidney cells, HEK 293 (ATCC# CRL 1573) were grown in standard DMEM medium supplemented with 2 mM glutamine and 10% fetal bovine serum. HEK 293 cells were transfected by a standard calcium-phosphate-DNA coprecipitation method using the rat α1B+β1b+α2δ N-type calcium channel subunits in a vertebrate expression vector (for example, see Current Protocols in Molecular Biology).
After an incubation period of from 24 to 72 hrs the culture medium was removed and replaced with external recording solution (see below). Whole cell patch clamp experiments were performed using an Axopatch 200B amplifier (Axon Instruments, Burlingame, Calif.) linked to an IBM compatible personal computer equipped with pCLAMP software. Borosilicate glass patch pipettes (Sutter Instrument Co., Novato, Calif.) were polished (Microforge, Narishige, Japan) to a resistance of about 4 MΩ when filled with cesium methanesulfonate internal solution (composition in MM: 109 CsCH3 SO4, 4 MgCl2, 9 EGTA, 9 HEPES, pH 7.2). Cells were bathed in 5 mM Ba^++ (in mM: 5 BaCl2, 1 MgCl2, 10 HEPES, 40 tetraethylammonium chloride, 10 glucose, 87.5 CsCl pH 7.2). […] Drugs were perfused directly into the vicinity of the cells using a microperfusion system.
Normalized dose-response curves were fit (Sigmaplot 4.0, SPSS Inc., Chicago, Ill.) by the Hill equation to determine IC50 values. Steady-state inactivation curves were plotted as the normalized test pulse amplitude following 5 s inactivating prepulses at +10 mV increments. Inactivation curves were fit (Sigmaplot 4.0) with the Boltzman equation, Ipeak (normalized)=1/(1+exp((V−Vh)z/25.6)), where V and Vh are the conditioning and half inactivation potentials, respectively, and z is the slope factor.
N-type calcium channel blocking activity was assayed in human embryonic kidney cells, HEK 293, stably transfected with the rat brain N-type calcium channel subunits (α1B+α2δ+β1b cDNA subunits). Alternatively, N-type calcium channels (α1B+α2δ+β1b cDNA subunits), L-type channels (α1C+α2δ+β1b cDNA subunits) and P/Q-type channels (α1A+α2δ+β1b cDNA subunits) were transiently expressed in HEK 293 cells. Briefly, cells were cultured in Dulbecco's modified eagle medium (DMEM) supplemented with 10% fetal bovine serum, 200 U/ml penicillin and 0.2 mg/ml streptomycin at 37° C. with 5% CO2. At 85% confluency cells were split with 0.25% trypsin/1 mM EDTA and plated at 10% confluency on glass coverslips. At 12 hours the medium was replaced and the cells transiently transfected using a standard calcium phosphate protocol and the appropriate calcium channel cDNA's. Fresh DMEM was supplied and the cells transferred to 28° C./5% CO2. Cells were incubated for 1 to 2 days to whole cell recording.
Whole cell patch clamp experiments were performed using an Axopatch 200B amplifier (Axon Instruments, Burlingame, Calif.) linked to a personal computer equipped with pCLAMP software. The external and internal recording solutions contained, respectively, 5 mM BaCl2, […], 10 mM HEPES, 40 mM TEACl, 10 mM glucose, 87.5 mM CsCl (pH 7.2) and 108 mM CsMS, 4 mM MgCl2, 9 mM EGTA, 9 mM HEPES (pH 7.2). Currents were typically elicited from a holding potential of −80 mV to +10 mV using Clampex software (Axon Instruments).
(Patch clamp records ionic current or voltage across a cell membrane.)

In test [2] the target is T2, human α1G T-type channels (Homo sapiens, UniProt O43497).
T2 construct: expressed in transfected cells
T2 sequence (O43497 whole entry): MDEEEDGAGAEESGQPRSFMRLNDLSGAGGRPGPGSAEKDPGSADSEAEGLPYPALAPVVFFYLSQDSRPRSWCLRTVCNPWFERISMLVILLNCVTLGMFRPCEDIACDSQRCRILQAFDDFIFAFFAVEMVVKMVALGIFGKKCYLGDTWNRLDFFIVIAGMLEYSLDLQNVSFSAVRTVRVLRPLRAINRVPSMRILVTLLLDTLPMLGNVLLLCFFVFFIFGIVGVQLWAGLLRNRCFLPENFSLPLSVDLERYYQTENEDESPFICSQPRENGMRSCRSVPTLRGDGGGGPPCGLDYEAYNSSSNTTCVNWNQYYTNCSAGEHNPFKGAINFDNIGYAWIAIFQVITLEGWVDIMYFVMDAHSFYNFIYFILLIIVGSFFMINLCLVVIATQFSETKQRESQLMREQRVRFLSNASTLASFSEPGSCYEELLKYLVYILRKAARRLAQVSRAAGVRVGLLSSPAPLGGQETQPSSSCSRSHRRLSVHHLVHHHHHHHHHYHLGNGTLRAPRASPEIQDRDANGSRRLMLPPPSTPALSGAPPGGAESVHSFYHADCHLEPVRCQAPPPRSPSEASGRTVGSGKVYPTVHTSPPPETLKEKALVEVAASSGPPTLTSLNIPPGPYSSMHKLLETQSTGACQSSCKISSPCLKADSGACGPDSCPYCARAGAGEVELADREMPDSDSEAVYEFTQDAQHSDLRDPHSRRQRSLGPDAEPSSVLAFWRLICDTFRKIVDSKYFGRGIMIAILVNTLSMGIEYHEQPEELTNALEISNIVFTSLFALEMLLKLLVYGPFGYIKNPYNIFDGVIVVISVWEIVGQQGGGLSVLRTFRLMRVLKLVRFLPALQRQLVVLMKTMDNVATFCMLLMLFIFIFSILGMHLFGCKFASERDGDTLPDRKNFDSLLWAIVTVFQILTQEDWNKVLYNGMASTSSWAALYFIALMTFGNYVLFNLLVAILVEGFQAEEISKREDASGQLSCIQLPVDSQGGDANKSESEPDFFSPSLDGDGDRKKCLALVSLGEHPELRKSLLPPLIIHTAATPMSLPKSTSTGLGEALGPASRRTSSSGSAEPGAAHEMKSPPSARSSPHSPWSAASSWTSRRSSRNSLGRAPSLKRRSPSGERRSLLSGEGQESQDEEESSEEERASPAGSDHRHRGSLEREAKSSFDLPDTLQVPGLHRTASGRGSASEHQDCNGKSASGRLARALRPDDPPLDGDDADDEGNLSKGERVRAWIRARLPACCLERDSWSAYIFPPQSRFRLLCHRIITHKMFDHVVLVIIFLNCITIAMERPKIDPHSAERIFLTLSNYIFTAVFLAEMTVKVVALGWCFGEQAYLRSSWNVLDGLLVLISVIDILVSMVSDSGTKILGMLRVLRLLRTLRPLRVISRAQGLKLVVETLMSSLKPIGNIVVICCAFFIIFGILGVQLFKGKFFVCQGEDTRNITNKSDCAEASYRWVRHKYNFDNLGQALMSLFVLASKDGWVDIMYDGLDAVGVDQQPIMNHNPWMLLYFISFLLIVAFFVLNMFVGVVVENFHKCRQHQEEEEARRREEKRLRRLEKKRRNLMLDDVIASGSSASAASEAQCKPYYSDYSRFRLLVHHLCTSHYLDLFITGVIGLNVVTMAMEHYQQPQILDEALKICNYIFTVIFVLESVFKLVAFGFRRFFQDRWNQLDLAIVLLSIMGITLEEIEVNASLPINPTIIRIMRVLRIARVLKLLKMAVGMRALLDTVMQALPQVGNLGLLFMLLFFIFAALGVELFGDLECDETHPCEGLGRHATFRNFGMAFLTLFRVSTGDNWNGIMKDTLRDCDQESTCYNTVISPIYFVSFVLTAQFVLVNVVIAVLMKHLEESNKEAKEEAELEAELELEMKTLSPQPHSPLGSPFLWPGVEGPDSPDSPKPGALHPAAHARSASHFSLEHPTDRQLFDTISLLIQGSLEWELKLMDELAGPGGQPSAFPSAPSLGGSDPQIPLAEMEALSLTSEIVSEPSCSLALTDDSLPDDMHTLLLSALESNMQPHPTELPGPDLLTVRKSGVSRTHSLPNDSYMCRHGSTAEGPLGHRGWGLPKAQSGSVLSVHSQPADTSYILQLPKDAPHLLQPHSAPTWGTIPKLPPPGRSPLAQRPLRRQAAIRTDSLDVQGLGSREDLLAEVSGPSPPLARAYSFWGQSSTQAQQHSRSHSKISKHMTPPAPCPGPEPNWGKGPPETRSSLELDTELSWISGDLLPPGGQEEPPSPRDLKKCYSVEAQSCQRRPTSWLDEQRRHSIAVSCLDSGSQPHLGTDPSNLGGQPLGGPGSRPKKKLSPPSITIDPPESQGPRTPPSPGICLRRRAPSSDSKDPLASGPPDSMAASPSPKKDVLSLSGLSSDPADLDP
Put plainly: Block of α1G T-type channels, whole-cell patch clamp in HEK cells. Type of test: cell-based. Here is the method:
Standard patch-clamp techniques were employed to identify blockers of T-type currents. Briefly, previously described HEK cell lines stably expressing human α1G T-type channels were used for all the recordings (passage #: 4-20, 37° C., 5% CO2). To obtain T-type currents, plastic dishes containing semi-confluent cells were positioned on the stage of a ZEISS AXIOVERT S100 microscope after replacing the culture medium with external solution (see below). Whole-cell patches were obtained using pipettes (borosilicate glass with filament, O.D.: 1.5 mm, I.D.: 0.86 mm, 10 cm length), fabricated on a SUTTER P-97 puller with resistance values of ˜5 MΩ (see below for internal solution).
In the non-inactivating protocol, the holding potential is set at −110 mV and with a pre-pulse at −100 mV for 1 second prior to the test pulse at −40 mV for 50 ms. […]
Test compounds were dissolved in external solution, 0.1-0.01% DMSO. After ˜10 min rest, they were applied by gravity close to the cell using a WPI microfil tubing. The “non-inactivated” pre-pulse was used to examine the resting block of a compound. The “inactivated” protocol was employed to study voltage-dependent block. However, the initial data shown below were mainly obtained using the non-inactivated protocol only. IC50 values are shown for various compounds of the invention in Table 6.

The subject of test [3] is P/Q-type channels (α1A+α2δ+β1b). The experiment in a line: Selectivity patch clamp, P/Q-type channels transiently expressed in HEK 293 cells. Type of test: cell-based. The following applies: N-type vs P/Q-type. Here is the method: as §1
(§2) After an incubation period of from 24 to 72 hrs the culture medium was removed and replaced with external recording solution (see below). Whole cell patch clamp experiments were performed using an Axopatch 200B amplifier (Axon Instruments, Burlingame, Calif.) linked to an IBM compatible personal computer equipped with pCLAMP software. Borosilicate glass patch pipettes (Sutter Instrument Co., Novato, Calif.) were polished (Microforge, Narishige, Japan) to a resistance of about 4 MΩ when filled with cesium methanesulfonate internal solution (composition in MM: 109 CsCH3 SO4, 4 MgCl2, 9 EGTA, 9 HEPES, pH 7.2). Cells were bathed in 5 mM Ba^++ (in mM: 5 BaCl2, 1 MgCl2, 10 HEPES, 40 tetraethylammonium chloride, 10 glucose, 87.5 CsCl pH 7.2). Current data shown were elicited by a train of 100 ms test pulses at 0.066 Hz from −100 mV and/or −80 mV to various potentials (min. −20 mV, max. +30 mV). Drugs were perfused directly into the vicinity of the cells using a microperfusion system. […]

Test [4] deals with L-type channels (α1C+α2δ+β1b). Put plainly: Selectivity patch clamp, L-type channels transiently expressed in HEK 293 cells. Type of test: cell-based. The following applies: N-type vs L-type. The procedure: as §1, §2
Where [5] appears, read: low frequency stimulation 0.067 Hz (tonic block), read-out: IC50 at 0.067 Hz.
Setting [6] is: non-inactivating protocol, pre-pulse −100 mV (resting block), read-out: IC50 at −100 mV.

Read-outs that look alike come from different tables or passages of the source.

T1 sequence (Q02294 whole entry): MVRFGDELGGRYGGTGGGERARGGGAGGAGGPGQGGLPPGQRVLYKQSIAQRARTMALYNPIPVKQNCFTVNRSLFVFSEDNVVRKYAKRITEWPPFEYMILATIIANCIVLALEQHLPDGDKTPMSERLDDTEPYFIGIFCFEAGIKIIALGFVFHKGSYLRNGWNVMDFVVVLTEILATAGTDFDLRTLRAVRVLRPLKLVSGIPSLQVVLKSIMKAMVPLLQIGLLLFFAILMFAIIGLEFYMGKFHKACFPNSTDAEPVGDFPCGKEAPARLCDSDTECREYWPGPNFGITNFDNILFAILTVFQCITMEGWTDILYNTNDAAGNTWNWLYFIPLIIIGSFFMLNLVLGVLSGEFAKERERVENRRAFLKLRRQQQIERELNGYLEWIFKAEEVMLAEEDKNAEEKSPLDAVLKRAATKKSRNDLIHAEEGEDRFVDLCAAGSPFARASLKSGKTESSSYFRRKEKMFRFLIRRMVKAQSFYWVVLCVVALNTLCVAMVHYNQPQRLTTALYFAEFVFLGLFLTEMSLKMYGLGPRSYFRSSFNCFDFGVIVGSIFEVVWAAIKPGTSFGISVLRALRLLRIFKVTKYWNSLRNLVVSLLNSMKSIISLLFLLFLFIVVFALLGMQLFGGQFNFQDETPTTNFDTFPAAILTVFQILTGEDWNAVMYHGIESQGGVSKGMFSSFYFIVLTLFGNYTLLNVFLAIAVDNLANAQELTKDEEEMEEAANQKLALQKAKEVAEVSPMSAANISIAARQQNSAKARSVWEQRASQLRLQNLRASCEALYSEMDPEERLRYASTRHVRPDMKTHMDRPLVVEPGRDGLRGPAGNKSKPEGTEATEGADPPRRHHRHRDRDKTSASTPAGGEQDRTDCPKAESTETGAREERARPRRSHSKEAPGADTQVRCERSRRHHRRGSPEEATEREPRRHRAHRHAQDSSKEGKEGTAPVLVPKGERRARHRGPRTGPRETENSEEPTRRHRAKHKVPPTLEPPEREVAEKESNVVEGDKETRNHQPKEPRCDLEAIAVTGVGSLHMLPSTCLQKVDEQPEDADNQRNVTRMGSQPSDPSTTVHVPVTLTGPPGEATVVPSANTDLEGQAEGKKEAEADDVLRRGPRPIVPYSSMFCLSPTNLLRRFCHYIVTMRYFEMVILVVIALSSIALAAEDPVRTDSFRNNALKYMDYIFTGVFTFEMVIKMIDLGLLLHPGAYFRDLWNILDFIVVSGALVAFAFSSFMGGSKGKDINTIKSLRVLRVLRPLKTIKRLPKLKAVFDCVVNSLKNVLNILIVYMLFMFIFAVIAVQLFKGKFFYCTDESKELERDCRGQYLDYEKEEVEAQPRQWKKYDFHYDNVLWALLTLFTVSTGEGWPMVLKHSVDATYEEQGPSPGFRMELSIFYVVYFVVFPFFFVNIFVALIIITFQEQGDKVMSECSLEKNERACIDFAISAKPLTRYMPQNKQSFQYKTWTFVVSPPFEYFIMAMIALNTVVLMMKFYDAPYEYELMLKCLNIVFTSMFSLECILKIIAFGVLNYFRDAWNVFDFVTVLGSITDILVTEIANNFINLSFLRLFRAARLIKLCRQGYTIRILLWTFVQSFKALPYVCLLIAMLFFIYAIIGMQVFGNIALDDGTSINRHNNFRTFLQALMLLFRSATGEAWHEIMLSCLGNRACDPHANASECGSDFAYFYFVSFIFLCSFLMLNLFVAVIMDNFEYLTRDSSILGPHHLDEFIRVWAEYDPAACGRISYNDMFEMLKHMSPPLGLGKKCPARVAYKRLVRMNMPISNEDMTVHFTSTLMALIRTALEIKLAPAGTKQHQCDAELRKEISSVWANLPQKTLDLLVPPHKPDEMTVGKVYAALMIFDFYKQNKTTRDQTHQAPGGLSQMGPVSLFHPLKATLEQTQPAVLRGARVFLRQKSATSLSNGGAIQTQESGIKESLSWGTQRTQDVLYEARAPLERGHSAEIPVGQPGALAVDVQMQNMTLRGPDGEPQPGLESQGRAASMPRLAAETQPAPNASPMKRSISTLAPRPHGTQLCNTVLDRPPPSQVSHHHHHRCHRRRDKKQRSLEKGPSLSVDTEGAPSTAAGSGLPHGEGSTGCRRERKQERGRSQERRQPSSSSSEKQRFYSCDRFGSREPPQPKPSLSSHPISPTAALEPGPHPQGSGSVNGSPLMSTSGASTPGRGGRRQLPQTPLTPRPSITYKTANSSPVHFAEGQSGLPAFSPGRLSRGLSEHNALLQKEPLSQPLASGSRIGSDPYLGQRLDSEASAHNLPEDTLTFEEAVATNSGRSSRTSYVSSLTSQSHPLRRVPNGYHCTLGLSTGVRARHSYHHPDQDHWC

In the case of `O=C(NCC1CCN(C(=O)CCCCC(c2ccc(F)cc2)c2ccc(F)cc2)C1)c1cc(C(F)(F)F)cc(C(F)(F)F)c1` (stereo not drawn) [Compound P24], in the test with rat formalin model, the “Maximum Possible Effect ± SEM, Phase I” value is on record as 66 ± 11%; the “Maximum Possible Effect ± SEM, Phase II” value is on record as 38 ± 7%; the “Maximum Possible Effect ± SEM, Phase IIA” value amounted to 20 ± 4%. In test [1] (setting [5]), the concentration for half-maximal inhibition (IC50) (usually the concentration that gives 50% inhibition) amounted to 380 nM. The IC50 in test [1] (pulse frequency 0.2 Hz (frequency dependent block), read-out: IC50 at 0.2 Hz) turned out to be 210 nM. Moreover, the IC50 in test [2] (setting [6]) was 12 nM.

`CC(C)(C)c1cc(C(=O)NCC2CCN(C(=O)CCCCC(c3ccc(F)cc3)c3ccc(F)cc3)C2)cc(C(C)(C)C)c1` (stereo not drawn) [Compound P17]: in the test with rat formalin model, the “Maximum Possible Effect ± SEM, Phase I” value is 74 ± 8%; the “Maximum Possible Effect ± SEM, Phase II” value came out at 84 ± 9%; the “Maximum Possible Effect ± SEM, Phase IIA” value came out at 79 ± 9%. Moreover, the “selectivity for N-type over P/Q-type channels” value in test [3] was “approximately 31 fold”. The 50% inhibitory concentration (IC50) in test [1] (setting [5]) came out at 60 nM. In test [4], the “selectivity for N-type over L-type channels” value is on record as “greater than 75 fold”. In addition, in test [2] (setting [6]), the IC50 is 29 nM.

Turning to `COc1c(C(C)(C)C)cc(C(=O)NCC2CCN(C(=O)CCCCC(c3ccc(F)cc3)c3ccc(F)cc3)C2)cc1C(C)(C)C` (stereo not drawn) [Compound P13], in the test on rat formalin model, the “Maximum Possible Effect ± SEM, Phase I” value amounted to 85 ± 9%; the “Maximum Possible Effect ± SEM, Phase II” value is on record as 86 ± 7%; the “Maximum Possible Effect ± SEM, Phase IIA” value was determined as 86 ± 5%. Besides, in test [2] (inactivation protocol (voltage-dependent block), read-out: IC50 at −80 mV), the IC50 is 0.7 nM. The IC50 in test [2] (setting [6]) came to 1.5 nM.
